Structures can show the parent of a compound that is named as a salt.

The test system of the test is Lysozyme (dimer formation with fructose). As to the kind of experiment: Inhibitory activity on Maillard reaction: formation of lysozyme dimer (lysozyme + fructose, SDS-PAGE, densitometer). The format is biochemical. To be noted: lysozyme 10 mg/ml, fructose 100 mM, 0.2M sodium phosphate buffer pH 7.4, 37° C., 3 days. On the procedure:
The inhibitory activity on Maillard reaction of the compounds of the present invention has confirmed by the screening system mentioned below. Lysozyme (10 mg/ml) and fructose (100 mM) were dissolved in 0.2M sodium phosphatic buffer solution (PH 7.4). The solution was incubated at a temperature of 37° C. for 3 days. A given volume of the reaction solution was separated using SDS-PAGE by the electrophoresis. After the electrophoresis, the SDS-PAGE was dyed by 0.2% Coomassie Brilliant Blue R-250 and then the dimer was determined by densitometer. The compounds of the present invention were added before incubation and the inhibitory activity of them against the formation of the dimer was examined in various concentrations and IC50 values were calculated.
Consider `Cc1c(C)c2c(c(C)c1O)CCC(C)(CCSCCOc1ccc(NC(=N)N)cc1)O2` (centres unmarked) [27 (b), 4-guanidinophenyl 2-[2-(6-hydroxy-2,5,7,8-tetramethyl-3,4-dihydro-2H-benzo[1,2-b]-pyran-2-yl)ethylthio]ethyl ether hydrochloride], for which the IC50 (usually the concentration needed to halve the response being measured) is 190 µM.
Turning to `Cc1c(C)c2c(c(C)c1O)CCC(C)(CCCCSc1ccc(NC(=O)/C=C/c3ccc(NC(=N)N)cc3)cc1)O2` (centres unmarked) [9 (d), N-[4-[4-(6-hydroxy-2,5,7,8-tetramethyl-3,4-dihydro-2H-benzo[1,2-b]pyran-2-yl)-butylthio]phenyl]-4-guanidinocinnamamidehydrochloride], the IC50 was 5.4 µM.
The value for `Cc1c(C)c2c(c(C)c1O)CCC(C)(CCCCOc1ccc(NC(=O)/C=C/c3ccc(NC(=N)N)cc3)cc1)O2` (centres unmarked) [Example 9, N-[4-[4-(6-hydroxy-2,5,7,8-tetramethyl-3,4-dihydro-2H-benzo[1,2-b]pyran-2-yl)butoxy]phenyl]-4-guanidinocinnamamide hydrochloride] was 6.2 µM; that for `Cc1c(C)c2c(c(C)c1O)CCC(C)(CCCCCCSc1ccc(NC(=N)N)cc1)O2` (centres unmarked) [Example 29, 4-guanidinophenyl 6-(6-hydroxy-2,5,7,8-tetramethyl-3,4-dihydro-2H-benzo[1,2-b]pyran-2-yl)-n-hexyl thioether hydrochloride] was 7.5 µM; that for `Cc1c(C)c2c(c(C)c1O)CCC(C)(CC=CCCCCNC(=N)NN)O2` (centres unmarked) [Example 23, 2-[7-(3-aminoguanidino)hept-2-enyl]-6-hydroxy-2,5,7,8-tetramethyl-3,4-dihydro-2H-benzo[1,2,-b]pyran hydroiodide] was 130 µM.
The figure for `Cc1c(C)c2c(c(C)c1O)CCC(C)(CCOc1ccc(NC(=O)COc3ccc(NC(=N)N)cc3)cc1)O2` (centres unmarked) [7 (l), N-[4-[2-(6-hydroxy-2,5,7,8-tetramethyl-3,4-dihydro-2H-benzo[1,2-b]pyran-2-yl)-ethoxy]phenyl]-4-guanidinophenoxyacetamidehydrochloride] is 54 µM.
The figure for `Cc1c(C)c2c(c(C)c1O)CCC(C)(CCNC(=O)/C=C/c1ccc(NC(=N)N)cc1)O2` (centres unmarked) [2 (e), N-[2-(6-hydroxy-2,5,7,8-tetramethyl-3,4-dihydro-2H-benzo[1,2-b]pyran-2-yl)-ethyl]4-quanidinocinnam-amide hydrochloride] is 190 µM; for `Cc1c(C)c2c(c(C)c1O)CCC(C)(CCCCSc1ccc(NC(=N)N)cc1)O2` (centres unmarked) [10 (e), 4-guanidinophenyl 4-(6-hydroxy-2,5,7,8-tetramethyl-3,4-dihydro-2H-benzo[1,2-b]pyran-2-yl)butyl thioether hydrochloride] it is 36 µM; for `Cc1cc(OCCC2(C)CCc3c(C)c(O)c(C)c(C)c3O2)ccc1NC(=N)N` (centres unmarked) [5 (c), 3-methyl-4-guanidino-phenyl 2-(6-hydroxy-2,5,7,8-tetramethyl-3,4-dihydro-2H-benzo[1,2-b]pyran-2-yl)ethyl ether hydrochloride] it is 500 µM.
For `Cc1c(C)c2c(c(C)c1O)CCC(C)(CCOCCNC(=O)/C=C/c1ccc(NC(=N)N)cc1)O2` (centres unmarked) [Example 21, N-[2-[2-(6-hydroxy-2,5,7,8-tetramethyl-3,4-dihydro-2H-benzo[1,2-b]pyran-2-yl)ethoxy]ethyl]-4-guanidinocinnamamide hydrochloride], the IC50 was determined as 220 µM.
Regarding `Cc1c(C)c2c(c(C)c1O)CCC(C)(CCCCOc1ccc(NC(=O)c3ccc(NC(=N)N)cc3)cc1)O2` (centres unmarked) [9 (a), N-[4-[4-(6-hydroxy-2,5,7,8-tetramethyl-3,4-dihydro-2H-benzo[1,2-b]pyran-2-yl)-butoxy]phenyl]-4-guanidinobenzamidehydrochloride], the IC50 was 10 µM.
Consider `CC(=O)Nc1cc(NC(=O)/C=C/c2ccc(NC(=N)N)cc2)ccc1OCCC1(C)CCc2c(C)c(O)c(C)c(C)c2O1` (centres unmarked) [7 (d), N-[3-acetoamide-4-[2-(6-hydroxy-2,5,7,8-tetramethyl-3,4-dihydro-2H-benzo[1,2-b]-pyran-2-yl)ethoxy]phenyl]-4-guanidinocinnamamidehydrochloride], for which the IC50 was 48 µM.
`Cc1c(C)c2c(c(C)c1O)CCC(C)(CCN(C)C(=O)/C=C/c1ccc(NC(=N)N)cc1)O2` (centres unmarked) [Example 24, N-methyl-N-[2-(6-hydroxy-2,5,7,8-tetramethyl-3,4-dihydro2H-benzo[1,2-b]pyran-2-yl)ethyl]-4-guanidinocinnamamide hydrochloride]: the IC50 stood at 180 µM.
The value for `Cc1c(C)c2c(c(C)c1O)CCC(C)(CCOC(=O)c1cccc(NC(=N)N)c1)O2` (centres unmarked) [1 (i), 2-(6-hydroxy-2,5,7,8-tetramethyl-3,4-dihydro-2H-benzo[1,2-b]pyran-2-yl)ethyl3-quanidinobenzoate hydrochloride] was 100 µM; that for `Cc1c2c(c3ccccc3c1O)OC(C)(CCOc1ccc(NC(=O)/C=C/c3ccc(NC(=N)N)cc3)cc1)CC2` (centres unmarked) [7 (n), N-[4-[2-(2,5-dimethyl-6-hydroxy-3,4-dihydro-2H-naphtho[1,2-b]pyran-2-yl)-ethoxy]phenyl]-4-guanidino-cinnamamide hydrochloride] was 10 µM.
The figure for `Cc1c(C)c2c(c(C)c1O)CCC(C)(CCCCOc1ccc(NC(=O)/C=C/c3ccc(NC(=N)N)cc3)cc1C(F)(F)F)O2` (centres unmarked) [9 (l), N-[4-[4-(6-hydroxy-2,5,7,8-tetramethyl-3,4-dihydro-2H-benzo[1,2-b]pyran-2-yl)-butoxy]-3-trifluoromethyl-phenyl]-4-guanidino-cinnamamide hydrochloride] is 6.6 µM.
Take `Cc1c(C)c2c(c(C)c1O)CCC(C)(CCN(Cc1ccccc1)C(=O)/C=C/c1ccc(NC(=N)N)cc1)O2` (centres unmarked) [24 (a), N-benzyl-N-[2-(6-hydroxy-2,5,7,8-tetramethyl-3,4-dihydro-2H-benzo[1,2-b]pyran-2-yl)ethyl]-4-guanidinocinnamamide hydrochloride]: the IC50 was determined as 68 µM.
The value for `Cc1c(C)c2c(c(C)c1O)CCC(C)(CCOc1ccc(NC(=O)/C=C/c3ccc(NC(=N)N)cc3)cc1C(F)(F)F)O2` (centres unmarked) [7 (c), N-[3-trifluoromethyl-4-[2-(6-hydroxy-2,5,7,8-tetramethyl-3,4-dihydro-2H-benzo[1,2-b]pyran-2-yl)-ethoxy]phenyl]-4-guanidino-cinnamamide hydrochloride] was 4.8 µM.
The figure for `Cc1c2c(c3ccccc3c1O)OC(C)(CCNC(=O)c1cccc(NC(=N)N)c1)CC2` (centres unmarked) [2 (f), hydrochloride] is 150 µM; for `Cc1c2c(c3ccccc3c1O)OC(C)(CCCCSc1ccc(NC(=O)c3ccc(NC(=N)N)cc3)cc1)CC2` (centres unmarked) [9 (j), N-[4-[4-(2,5-dimethyl-6-hydroxy-3,4-dihydro-2H-naphtho[1,2-b]pyran-2-yl)-butylthio]phenyl]-4-guanidinobenzamidehydrochloride] it is 4.8 µM; for `CCOC(=O)c1cc(NC(=N)N)cc(C(=O)NCCC2(C)CCc3c(C)c(O)c(C)c(C)c3O2)c1` (centres unmarked) [Example 14, N-[2-(6-hydroxy-2,5,7,8-tetramethyl-3,4-dihydro-2H-benzo[1,2-b]pyran-2-yl)ethyl]-3-ethoxycarbonyl-5-guanidinobenzamide hydrochloride] it is 220 µM.
For `Cc1c(C)c2c(c(C)c1O)CCC(C)(CCCCOc1ccc(CCSc3ccc(NC(=N)N)cc3)cc1)O2` (centres unmarked) [28 (c), 4-guanidinophenyl 2-[4-[4-(6-hydroxy-2,5,7,8-tetramethyl-3,4-dihydro-2H-benzo[1,2-b]-pyran-2-yl)butoxy]phenyl]-ethyl thioether hydrochloride], the IC50 was 4.2 µM.
The figure for `Cc1c2c(c3ccccc3c1O)OC(C)(CCOc1ccc(NC(=N)N)cc1)CC2` (centres unmarked) [5 (f), 4-guanidinophenyl 2-(2,5-dimethyl-6-hydroxy-3,4-dihydro-2H-naphtho[1,2-b]-pyran-2-yl)ethyl ether hydrochloride] is 22 µM; for `Cc1c(C)c2c(c(C)c1O)CCC(C)(CCCCNC(=O)Nc1cccc(NC(=N)N)c1)O2` (centres unmarked) [Example 12, 1-[4-(6-hydroxy-2,5,7,8-tetramethyl-3,4-dihydro-2H-benzo[1,2-b]pyran-2-yl)butyl]-3-(3-guanidinophenyl)urea hydrochloride] it is 200 µM; for `CCOC(=O)c1cc(NC(=N)N)cc(C(=O)Nc2ccc(OCCCCC3(C)CCc4c(C)c(O)c(C)c(C)c4O3)cc2)c1` (centres unmarked) [9 (m), N-[4-[4-(6-hydroxy-2,5,7,8-tetramethyl-3,4-dihydro-2H-benzo[1,2-b]pyran-2-yl)-butoxy]phenyl]-3-guanidino-5-ethoxycarbonylbenzamidehydrochloride] it is 9 µM.
The figure for `COc1cc(NC(=O)/C=C/c2ccc(NC(=N)N)cc2)ccc1OCCC1(C)CCc2c(C)c(O)c(C)c(C)c2O1` (centres unmarked) [7 (e)] is 30 µM; for `Cc1c(C)c2c(c(C)c1O)CCC(C)(CCOc1ccc(NC(=O)c3cccc(NC(=N)N)c3)cc1)O2` (centres unmarked) [7 (a), N-[4-[2-(6-hydroxy-2,5,7,8-tetramethyl-3,4-dihydro-2H-benzo[1,2-b]pyran-2-yl)-ethoxy]phenyl]-3-guanidino-benzamide hydrochloride] it is 200 µM.
In the case of `Cc1c(C)c2c(c(C)c1O)CCC(C)(CCOCc1ccc(CNC(=N)NN)cc1)O2` (centres unmarked) [Example 4, 4-(3-aminoguamidinomethyl)benzyl 2-(6-hydroxy-2,5,7,8-tetramethyl-3,4-dihydro-2H-benzo[1,2-b]pyran-2-yl)ethyl ether hydroiodide], the IC50 amounted to 150 µM.
Take `Cc1c(C)c2c(c(C)c1O)CCC(C)(CCOc1ccc(CCOc3ccc(NC(=N)N)cc3)cc1)O2` (centres unmarked) [Example 27, 4-guanidinophenyl 2-[4-[2-(6-hydroxy-2,5,7,8-tetramethyl-3,4-dihydro-2H-benzo[1,2-b]pyran-2-yl)ethoxy]phenyl]ethyl ether hydrochloride]: the IC50 amounted to 5.8 µM.
